According to paper PMC2720136 (Bioorganic & medicinal chemistry, 2009):
Blank lines part the entries; values can stand above or below the compound they belong to.

Experiments:
[1] = target: T1, pig kidney FBPase (Sus scrofa, UniProt P00636); test: Coupled-enzyme FBPase activity assay; format: biochemical
T1 sequence (P00636 1-338): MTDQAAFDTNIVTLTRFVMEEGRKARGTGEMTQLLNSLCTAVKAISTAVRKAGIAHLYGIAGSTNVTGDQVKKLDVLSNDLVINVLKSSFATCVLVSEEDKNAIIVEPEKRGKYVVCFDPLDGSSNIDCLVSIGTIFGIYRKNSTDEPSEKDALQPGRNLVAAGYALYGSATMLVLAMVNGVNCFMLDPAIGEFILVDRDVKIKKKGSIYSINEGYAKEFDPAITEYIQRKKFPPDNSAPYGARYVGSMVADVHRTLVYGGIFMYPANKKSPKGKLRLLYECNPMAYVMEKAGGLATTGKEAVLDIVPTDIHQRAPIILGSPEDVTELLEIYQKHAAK

[2] = test system: human liver FBPase; test: Inhibition of human liver FBPase by MB05032; format: biochemical; conditions: MB05032 EC50 (human liver FBPase) vs 4c IC50 (pig kidney FBPase)

Structure (SMILES): CC(C)Cc1sc(N)nc1-c1ccc(P(=O)(O)O)o1 [MB05032]
fold better than 4c [2]: approximately 370 fold

Structure (SMILES): O=[N+]([O-])c1cccc(Nc2nc(-c3ccccc3)cs2)c1 [Compound 7a, N-(3-Nitrophenyl)-4-phenylthiazol-2-amine]
inhibitory activity against the enzyme at 300 μM ([1]; pig kidney FBPase, 300 μM inhibitor): no significant inhibitory activity

Structure (SMILES): O=[N+]([O-])c1ccc(-c2csc(Nc3ccccc3)n2)cc1 [Compound 8e, 4-(4-Nitrophenyl)-N-phenylthiazol-2-amine]
inhibition with nitro at R5 (in words) ([1]; pig kidney FBPase): eliminates inhibition

Structure (SMILES): O=[N+]([O-])c1ccc(-c2csc(Nc3ccc(O)cc3)n2)cc1 [Compound 3d, 4-(4-(4-Nitrophenyl)thiazol-2-ylamino)phenol]
inhibition with nitro at R5 (in words) ([1]; pig kidney FBPase): eliminated

Results, then the compound that gave them:

fold improved inhibition of 5b over 5a ([1]; ratio of IC50, 5a vs 5b): ~18 fold
Structure (SMILES): Oc1ccc(-c2csc(Nc3ccccc3O)n2)cc1 [Compound 5b, 2-(4-(4-Hydroxyphenyl)thiazol-2-ylamino)phenol]

fold improved inhibitory activity of 3b over 3a ([1]; ratio of IC50, 3a vs 3b): 3 fold
Structure (SMILES): Oc1ccc(Nc2nc(-c3ccc(O)cc3)cs2)cc1 [Compound 3b, 4-(4-(4-Hydroxyphenyl)thiazol-2-ylamino)phenol]
